Tests used:
[1] = tested on: MEK, ERK1/2, p90RSK, p38, SAPK/JNK phosphorylation in astrocytes; assay: Western blotting of phosphorylated MAP kinase pathway proteins in astrocyte lysates; type: cell-based, mouse
Protocol: SDS-PAGE and Western blotting. Astrocytes were treated for the indicated time with media or 100 ng/ml RANTES, eotaxin, or other materials as indicated. Cells (3×10^5 in Examples 1-3, or 2×10^4 in later Examples) were resuspended in 100 μl buffer (50 mM HEPES, pH 7.5, 150 mM NaCl, 2 mM EDTA, 2 mM EGTA, 1% Triton X-100, 50 mM Sodium fluoride, 5 mM Sodium pyrophosphate, 50 mM Sodium β-glycerophosphate, 1 mM Sodium Ortho-vanadate, 1 mM DTT, 1 mM PMSF, 10 μg/ml Leupeptin, and 10 μg/ml Aprotinin). Protein concentration of the whole cell extract was determined by BCA protein assay kit (Pierce, Rockford, Ill.). Samples (10 μg) were loaded and separated on a 10% SDS-polyacrylamide gel. After transfer to Hybond ECL nitrocellulose membrane (Amersham Pharmacia Biotech Inc, Piscataway, N.J.) or Zeta-probe blotting membranes (Bio-Rad, Richmond Calif.) blots were blocked overnight with 5% BSA at 4° C., and probed with the antibody indicated. Antibody against unphosphorylated or phosphorylated erk (Cell Signaling, Beverly, Mass.) was used at 1 μg/ml. Appropriate anti-immunoglobulin reagents were used to develop the blots by enhanced chemiluminescence (Amersham Pharmacia Biotech Inc, Piscataway, N.J.).
Little is known about the signaling mechanisms involved in astrocyte respones to chemokines. To examine components of the RANTES signal transduction pathway, phosphorylation of the MAP kinase kinase (MEK) and mitogen activated protein (MAP) kinases was examined. To minimize basal kinase activity, astrocytes were starved of serum for at least 3 h before treatment with chemokine. Whole cell lysates were separated by SDS-PAGE and examined by Western blot. Antibodies that specifically react with phosphorylated MEK or phosphorylated extracellular signal-related kinase (ERK) were used to detect the active kinases.

[2] = tested on: Raf-1; assay: Raf-1 kinase activity in lysates of treated astrocytes (phosphorylation of MEK); type: cell-based, mouse; settings: 100 ng/ml RANTES
Protocol: FIG. 12 is a set of bar graphs and a photograph of a Western blot showing that RANTES activated Raf-1 kinase activity in astrocytes. Panel A. Astrocytes were stimulated with 100 ng/ml RANTES for the indicated times and cell lysates were prepared for analysis of Raf-1 activity. Values are presented as relative Raf-1 kinase activity (percent) and represent the mean±S.E.M. of triplicate experiments. Panel B. Astrocytes were stimulated with 100 ng/ml RANTES for the indicated times and cell lysates were prepared for analysis by Western blotting. Blots were stained with anti phospho-Raf (Ser 259) Ab or control anti-Raf Ab. Panel C. […] Astrocytes were pretreated with the indicated doses of Raf-1 inhibitor for 1 h and then stimulated with 100 ng/ml RANTES for 3 h. Total RNA was prepared and assayed by RPA for expression of message for the indicated proinflammatory mediators and the housekeeping genes L32 and GAPDH. Representative data from one of three similar experiments are presented. […]
It is herein shown that RANTES induced Raf-1 kinase activity in 1 to 5 min; Raf-1 kinase activity peaked after 5-10 min (FIG. 12A). […] Increased Raf-1 enzyme activity was accompanied by dephosphorylation of Ser 259, an inhibitory phosphate site detected by a specific anti-Raf (Ser 259) antibody (FIG. 12B).

[3] = tested on: ICAM-1 and CX3CR1 on astrocytes; assay: Flow cytometric analysis of astrocyte receptor proteins; type: cell-based, mouse
Protocol: Flow cytometric analyses. PBS with 0.1% sodium azide was used for all washes and antibody (Ab) dilutions. Cells were pre-incubated 15 min with 0.5 μg Fc Block (BD-PharMingen) then 40 min at 4° C. with 1 μg of the appropriate Ab or matched isotype control immunoglobulin. Fluorescence-labelled cells were analyzed on a Coulter Profile II flow cytometer (Coulter, Hialeah, Fla.).
Another marker of activated astrocytes in MS and EAE lesions is the increased expression of the adhesion receptor, ICAM-1 (Lee, et al., 1999. J Immunol 165:4658-4666). Control astrocyte cultures were stained with anti-ICAM-1, and RANTES treatment further increased the levels of ICAM-1 protein expression about three-fold (mean intensity 50.2 vs. control of 16.3).
The cell surface receptor CX3CR1 was also selected for analysis since astrocyte expression of this receptor may facilitate interactions with endothelial cells and neurons that carry the membrane-tethered ligand for this receptor (Bacon, et al, 2000. J Neuroimmunol 104:92-97). Anti-CX3CR1 stained about 50% of the control astrocyte population. […] The modulation of receptor proteins peaked at 24 h; similar patterns were noted after a 48 h incubation with RANTES but the intensity levels were intermediate between the 0 and 24 h values.

[4] = tested on: cultured mouse astrocytes; assay: RT-PCR for KC message in astrocytes; type: cell-based
[5] = tested on: phosphorylated RSK in astrocytes; assay: Immunofluorescence of phospho-p90RSK translocation; type: cell-based, mouse; settings: 100 ng/ml RANTES, 5 or 20 min
Protocol: Immunofluorescence. Astrocytes were grown on glass coverslips for a day; the cells were then serum-starved for three hours. Astrocytes were treated with RANTES for 5 or 20 minutes. Following treatment, cells were fixed in −20° C. methanol, permeabilized in ice-cold 0.2% Triton X-100 in PBS and incubated with phospho-p90RSK (Thr360/Ser364) antibody overnight at 4° C., followed by incubation with Alexa Fluor 555 goat anti-rabbit IgG (Molecular Probes, Eugene, Oreg.). Nuclei were stained with Hoechst 33258 (1:2000) for 5 min; coverslips were mounted on slides using the ProLong Antifade Kit (Molecular Probes, Eugene, Oreg.). Slides were stored at room temperature in the dark until observation.
The ability of RANTES to induce nuclear translocation of RSK was examined.

- time of peak modulation of receptor proteins ([3]; RANTES): 24 h
- increase of ICAM-1 protein expression ([3]; RANTES treatment vs control astrocytes): about three
- ICAM-1 mean intensity ([3]; RANTES treatment, control 16.3): 50.2
- CX3CR1 mean intensity ([3]; RANTES treatment, control of 6.0 as printed): 14.3
Substance: RANTES
- duration of phosphorylation of MEK, ERK1 and ERK2 ([1]; 100 ng/ml RANTES): over 2 h
- duration of phosphorylation of RSK ([1]; 100 ng/ml RANTES): over 2 h
- phosphorylation state of Raf-1 Ser 259 ([1]; 100 ng/ml RANTES): dephosphorylation
- time of appearance of phosphorylation of MEK, ERK1 and ERK2 ([1]; 100 ng/ml RANTES): ≤ 5 min
- time of peak phosphorylation of MEK, ERK1 and ERK2 ([1]; 100 ng/ml RANTES): 20 to 60 min
- time of peak phosphorylation of RSK ([1]; 100 ng/ml RANTES): 60 min
- time of appearance of phosphorylation of RSK ([1]; 100 ng/ml RANTES, Ser381, Thr360/Ser364, Thr574): ≤ 5 min
- phosphorylation of p38 or SAPK/JNK ([1]; 100 ng/ml, 20 min, 5 to 120 min): failed to phosphorylate
- time of peak Raf-1 kinase activity [2]: 5 to 10 min
- cells stained with anti-CX3CR1 ([3]; after RANTES, control about 50%): less than 30%
- synthesis of KC message [4]: induce synthesis of KC message
- nuclear translocation of phosphorylated RSK [5]: nuclear translocation was noted at 5 min

— patent US20030082135A1, “Pathway of RANTES-mediated chemokine synthesis in astrocytes and methods of use therefor” (priority 2001, published 2003)
